{"source": "ChEMBL document CHEMBL1139693", "about": "“Structure-based design of a novel thiazolone scaffold as HCV NS5B polymerase allosteric inhibitors” (Bioorg Med Chem Lett, 2006)", "assay": "Inhibition of HCV NS5B polymerase", "design": "species or system Hepacivirus hominis"}
{"compound": "Cc1ccc(S(=O)(=O)NC2=NC(=O)/C(=C/c3ccc(C)o3)S2)cc1", "values": [{"measurement": "IC50", "result": 2000, "unit": "nM"}]}
